SMILES strings stand for the structures. Entries after “also recorded” stand apart in the source; their conditions may differ.

Common to all, as to format: physicochemical
A short description of data set [1]: Chemical stability in the presence of cysteine by 1H NMR. The conditions noted are these: 37° C.; for chemical stability / isomerization, result in words: 48 mM cysteine, 20 mM cyclooctene (s-TCO 10 mM), D2O:DMSO-d6 10:1 v/v, 0-14 h. As for the experimental part:
(§1) The chemical stability of the compounds of Examples 1-3 was also investigated in the presence of thiols (cysteine and mercaptoethanol) by NMR in D2O:DMSO-d6 10:1 v/v at 37° C.
(§2) The solutions were prepared by the dilution of a stock solution prepared in DMSO-d6. An end concentration of 20 mM of the cyclooctenes was used except for the s-TCO, which was used in 10 mM end concentration due to poorer solubility. A 20 mM solution could not be prepared by dilution with D2O from DMSO-d6 stock solution without the precipitation of s-TCO. Nucleophiles mercaptoethanol and cysteine were used in 48 mM end concentration. Cysteine precipitated very soon from the solution. In all cases reactions were followed by ^1H NMR.
(§3) Measurements were taken in the following intervals: mercaptoethanol: 0 h, 2 h, 11 h, 17 h and 25 h; cysteine: 0 h, 6 h and 14 h; s-TCO without nucleophile at room temperature: 1 h, 7 h and 14 h.
(§4) In each case the ratio of the integrals of the cis-double bond to the sum of the integrals of the cis- and trans-double bonds was calculate.

Data set [2] in a line: Chemical stability in the presence of mercaptoethanol by 1H NMR. The conditions noted are these: for chemical stability / isomerization, result in words: 48 mM mercaptoethanol, 20 mM cyclooctene (s-TCO 10 mM), D2O:DMSO-d6 10:1 v/v, 0-25 h; for chemical stability / isomerization, result in words / Icis / Itrans / Itrans/(Icis + Itrans): 37° C.; for chemical stability (change by NMR) after 16 hours / Icis / Itrans / Itrans/(Icis + Itrans): mercaptoethanol; for chemical stability (change by NMR) after 16 hours: D2O:DMSO-d6 10:1 v/v at 37° C. On the set-up: Icis / Itrans: unit not given here. As to the method: as §1, §2
Measurements were taken in the following intervals: mercaptoethanol: 0 h, 2 h, 11 h, 17 h and 25 h; cysteine: 0 h, 6 h and 14 h; s-TCO without nucleophile at room temperature: 1 h, 7 h and 14 h. […]

Data set [3] can be described thus: Tetrazine kinetics with cyclooctenes (stopped-flow spectrophotometry). To be noted: for k2 second rate constant / second order rate constant k2: reaction with benzylamino tetrazine in PBS at 37° C. As for the experimental part: Kinetic measurements were performed with benzylamino tetrazine and excessive amounts of cyclooctenes, using an Applied Photophysics Stopped-Flow spectrophotometer. Stock solutions of reactants in DMSO were diluted in PBS pH 7.4 to a final concentration of 1 vol % DMSO. Solutions of these reactants were loaded into the individual chambers of the instrument and equilibrated to 37° C. for 10 min. The concentration of benzylamino tetrazine after the samples were mixed by the spectrometer in a 1:1 v/v ratio was 50, 75 or 150 μM depending on the cyclooctene used. The decrease of the benzylamino tetrazine absorbance measured at 515 nm was monitored at regular intervals between 0.075 s and 10 s depending on the cyclooctene used. For trials shorter than […] (TCO-OH, OX-TCO and 3PEGMe-TCO) 1000 data points were collected and for trials longer than 1 s (EG-TCO and DO-TCO) 10000 data points were collected.
The kobs, (s^−1) values were calculated using the Prism 6 software package and the results of 6 runs were averaged for each cyclooctene concentration. […] The average kobs, values were then plotted against the concentration of cyclooctenes to yield the second order rate constant k2=(dm^3 mol^−1 s^−1) from the slope of the line with the error from the standard deviation in the slope calculated in Prism 6.

Data set [4] can be described thus: Chemical stability in the presence of cysteine by 1H NMR. To be noted: for chemical stability (change by NMR) after 16 hours: D2O:DMSO-d6 10:1 v/v at 37° C.; for Itrans/(Icis + Itrans): 37° C.
Data set [5] is described as follows: Spontaneous isomerization in D2O or D2O:DMSO-d6 without nucleophile by 1H NMR. To be noted: for isomerization or degradation on storage in D2O, result in words: stored in D2O, 1H NMR. As to the method: Bulk samples of the compounds described above in Examples 1-3 were stored at −20° C. for six months. […] The spontaneous isomerization took almost 5 days at 37° C. and more than 12 days at room temperature. […] With 22, a similar degree of isomerization was observed only after 63 hours at room temperature in D2O.
as §3, §4

With `O=C1OC2CC/C=C/CCC2N1CCOCCO` (stereo not drawn) [OX-TCO, (E)-3-(2-(2-hydroxyethoxy)ethyl)-3,3a,4,5,9,9a-hexahydrocycloocta[d]oxazol-2(8H)-one], the “chemical stability / isomerization, result in words” value (“chemical stability / isomerization” for short) in data set [1] and in data set [2] was “did not show any change; also recorded: relatively stable” in each case. The “chemical stability (change by NMR) after 16 hours” value (“chemical stability (change by NMR)” for short) in data set [2] and in data set [4] was “did not show any change” throughout. In addition, the “weighted average second order rate constant k2” value in data set [3] (4:1 isomer mixture, benzylamino tetrazine in PBS at 37° C.) was 29242±636 dm^3 mol^−1 s^−1. In addition, the “k2 second rate constant” value in data set [3] turned out to be 29242 ± 636 dm^3 · mol^−1 · s^−1. For the same compound, the “isomerization or degradation on storage in D2O, result in words” value (“isomerization or degradation on storage” for short) in data set [5] was “no isomerization or degradation”.
As for `OCCOC1/C=C/CCCCC1` (stereo not drawn) [EG-TCO, (E)-2-(cyclooct-2-en-1-yloxy)ethanol], the “chemical stability / isomerization” value in data set [1] and in data set [2] was “did not show any change; also recorded: relatively stable” in each case. In addition, the “chemical stability (change by NMR)” value in data set [2] and in data set [4] was “did not show any change” throughout. In data set [3], the “k2 second rate constant” value is 600 ± 6 dm^3 · mol^−1 · s^−1. The “second order rate constant k2” value in data set [3] is recorded as 600±6 dm^3 mol^−1 s^−1.
For the compound `OC1CC/C=C/CCC1` (stereo not drawn) [TCO-OH, trans-cyclooctenol, reference compound], the “chemical stability / isomerization” value in data set [1] was “did not show any change; also recorded: relatively stable”; in data set [2] it was “did not show any change; also recorded: relatively stable”; in data set [2] (listed as TCO) it was “isomerized very fast”. Besides, the “chemical stability (change by NMR)” value in data set [2] and in data set [4] was “did not show any change” in each case. For the same compound, in data set [3], the “k2 second rate constant” value is given as 33585 ± 326 dm^3 · mol^−1 · s^−1. In addition, in data set [5], the “isomerization or degradation on storage” value was “no isomerization or degradation”.
Regarding `COCCOCCOCCOC1CC/C=C/CCC1O` (stereo not drawn) [3PEGMe-TCO, (E)-8-(2-(2-(2-methoxyethoxy)ethoxy)ethoxy)cyclooct-4-enol], in data set [1], the “chemical stability / isomerization” value is on record as “did not show any degradation; also recorded: relatively stable”. Further, the Icis in data set [2] (t 0 h) is 0.17; in data set [2] (t 2 h), 0.48; in data set [2] (t 11 h), 0.66; in data set [2] (t 17 h) it was 0.69; in data set [2] (t 25 h), 0.74. In addition, the Itrans in data set [2] (t 0 h), in data set [2] (t 2 h), in data set [2] (t 11 h), in data set [2] (t 17 h) and in data set [2] (t 25 h) was 2 each time. In addition, the “Itrans/(Icis + Itrans)” value in data set [2] (t 0 h) is 0.922; in data set [2] (t 2 h), 0.807; in data set [2] (t 11 h) it was 0.752; in data set [2] (t 17 h), 0.744; in data set [2] (t 25 h), 0.730. Moreover, in data set [5], the “isomerization or degradation on storage” value is “no isomerization or degradation”.
For `OCCOC1/C=C/COCOC1` (stereo not drawn) [DO-TCO, (E)-2-((5,8-dihydro-4H-1,3-dioxocin-5-yl)oxy)ethanol], the “chemical stability / isomerization” value in data set [1] was “isomerization of the trans isomer to the cis isomer; also recorded: isomerization of the trans-isomer to the cis-isomer; also recorded: undergo isomerization/decomposition; also recorded: much faster than that of s-TCO”. In addition, in data set [1] (cysteine, 6 hours), the “trans-isomer still present after 6 hours” value is listed as “no trans-compound was present”. For the same compound, the Icis in data set [1] (cysteine, t 0 h) is given as 0; in data set [1] (cysteine, t 6 h), 2; in data set [1] (cysteine, t 14 h), 2; in data set [2] (t 0 h), 0; in data set [2] (t 2 h), 0.18; in data set [2] (t 11 h), 0.38. In addition, the figures for the Icis in data set [2] (t 17 h) and in data set [2] (t 25 h) were 0.42 and 0.79, respectively. Moreover, the Itrans in data set [1] (cysteine, t 0 h) is on record as 2; in data set [1] (cysteine, t 6 h) it was 0; in data set [1] (cysteine, t 14 h), 0; in data set [2] (t 0 h), 2; in data set [2] (t 2 h) it was 2; in data set [2] (t 11 h), 2. The Itrans in data set [2] (t 17 h) and in data set [2] (t 25 h) was 2 throughout. Besides, the “Itrans/(Icis + Itrans)” value is reported as 1 in data set [2] (t 0 h); 0.917 in data set [2] (t 2 h); 0.840 in data set [2] (t 11 h); 0.826 in data set [2] (t 17 h); 0.717 in data set [2] (t 25 h); 1 in data set [4] (t 0 h). The “Itrans/(Icis + Itrans)” value in data set [4] (t 6 h) and in data set [4] (t 14 h) was 0 each time. The “k2 second rate constant” value in data set [3] is recorded as 332 ± 3 dm^3 · mol^−1 · s^−1. Also, the “second order rate constant k2” value in data set [3] is recorded as 332±3 dm^3 mol^−1 s^−1. The “time the spontaneous isomerization to the cis isomer took” value was about 5 days in data set [5] (D2O, 37° C.) and “more than 12 days” in data set [5] (D2O, room temperature). For the same compound, the “time after which a similar degree of isomerization (at least 5%) was observed” value in data set [5] (D2O, room temperature) was 63 h. For the same compound, the “isomerization or degradation on storage” value in data set [5] was “slow isomerization to the cis isomer”.

Source of the values: patent US10179775B2, “Cyclooctenes for bioorthogonol reactions” (The General Hospital Corporation, priority 2014, dated 2019).
